One test deals with T1, TDO (A172 cells) (Homo sapiens, UniProt P48775).
T1 construct: This assay utilised cancer cells which expressed either TDO or IDO; host or cells: A172 human glioblastoma cells
Put plainly: TDO cell-based assay (A172), kynurenine production. Conditions: A172 human glioblastoma cells, 500 μM L-Trp, 48 h, kynurenine by absorbance at 490 nm. In a few lines:
(§1)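 Kynurenine output was read at 490 nm after 5 min with 1% Ehrlich's reagent, using supernatants from 48 h, 37 °C cultures containing 500 μM L-Trp and test compound. TDO activity came from A172 cells. IDO activity came from SKOV-3 cells, whose expression was induced by adding 500 ng/ml IFNγ.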

Another test addresses T2, IDO (SKOV-3 cells) (Homo sapiens, UniProt P14902).
T2 construct: This assay utilised cancer cells which expressed either TDO or IDO; host or cells: SKOV-3 ovary adenocarcinoma cells, IFNγ-induced
Put plainly: IDO cell-based assay (SKOV-3, IFNγ-induced), kynurenine production. To be noted: SKOV-3 ovary adenocarcinoma cells, IFNγ 500 ng/ml, 500 μM L-Trp, 48 h, kynurenine by absorbance at 490 nm. In a few lines: as §1

T1 sequence (P48775 whole entry): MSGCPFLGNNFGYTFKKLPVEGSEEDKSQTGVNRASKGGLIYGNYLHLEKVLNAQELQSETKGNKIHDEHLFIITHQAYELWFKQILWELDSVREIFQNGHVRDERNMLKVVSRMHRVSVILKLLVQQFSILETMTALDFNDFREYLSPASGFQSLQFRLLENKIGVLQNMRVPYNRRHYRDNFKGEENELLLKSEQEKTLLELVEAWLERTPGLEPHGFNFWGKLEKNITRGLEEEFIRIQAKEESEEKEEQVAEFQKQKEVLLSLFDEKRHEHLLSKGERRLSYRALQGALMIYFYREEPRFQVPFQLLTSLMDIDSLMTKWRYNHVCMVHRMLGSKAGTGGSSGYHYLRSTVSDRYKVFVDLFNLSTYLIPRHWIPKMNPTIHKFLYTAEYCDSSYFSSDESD
T2 sequence (P14902 whole entry): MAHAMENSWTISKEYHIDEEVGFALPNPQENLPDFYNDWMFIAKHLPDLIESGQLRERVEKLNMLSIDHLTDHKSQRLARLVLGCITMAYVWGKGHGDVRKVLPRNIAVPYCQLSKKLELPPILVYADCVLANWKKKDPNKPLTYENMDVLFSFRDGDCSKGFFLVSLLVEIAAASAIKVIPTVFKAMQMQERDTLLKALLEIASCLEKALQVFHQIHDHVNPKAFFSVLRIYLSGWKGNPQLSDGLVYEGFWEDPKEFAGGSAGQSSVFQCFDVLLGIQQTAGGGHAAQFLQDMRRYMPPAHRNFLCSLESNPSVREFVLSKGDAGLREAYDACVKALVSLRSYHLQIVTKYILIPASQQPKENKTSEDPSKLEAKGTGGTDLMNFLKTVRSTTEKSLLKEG

Take `CC(NC(=O)c1cc2cc(Cl)ccc2[nH]1)c1nc(-c2ccccc2)no1` (stereo not drawn) [Compound 121]: the “TDO cellular assay (A172) pIC50” value on TDO (A172 cells) is on record as “− (− = pIC50 <4.50)”. Besides, the “IDO cellular assay (SKOV3) pIC50” value on IDO (SKOV-3 cells) was “+++ (+++ = pIC50 ≥5.50)”.

Consider `CC(CCNS(C)(=O)=O)NC(=O)c1cc2cc(Cl)ccc2[nH]1` (stereo not drawn) [Compound 122], for which the “TDO cellular assay (A172) pIC50” value at TDO (A172 cells) was “− (− = pIC50 <4.50)”. Moreover, on IDO (SKOV-3 cells), the “IDO cellular assay (SKOV3) pIC50” value is recorded as “++ (++ = pIC50 5.00-<5.50)”.

Consider `C[C@H](NS(=O)(=O)c1cc2cc(F)ccc2[nH]1)c1ccccc1` [Compound 123], for which the “TDO cellular assay (A172) pIC50” value at TDO (A172 cells) is listed as “+ (+ = pIC50 4.50-<5.00)”. Further, the “IDO cellular assay (SKOV3) pIC50” value on IDO (SKOV-3 cells) is reported as “++ (++ = pIC50 5.00-<5.50)”.

As to `CC(NC(=O)c1cc2cc(Cl)ccc2[nH]1)c1cnn(-c2ccccc2)c1` (stereo not drawn) [Compound 124], the “TDO cellular assay (A172) pIC50” value at TDO (A172 cells) is on record as “− (− = pIC50 <4.50)”. Moreover, on IDO (SKOV-3 cells), the “IDO cellular assay (SKOV3) pIC50” value is listed as “+++ (+++ = pIC50 ≥5.50)”.

For `COc1cccc(-n2cc(C(C)NC(=O)c3cc4cc(Cl)ccc4[nH]3)cn2)c1` (stereo not drawn) [Compound 125], the “TDO cellular assay (A172) pIC50” value at TDO (A172 cells) is recorded as “+ (+ = pIC50 4.50-<5.00)”. Moreover, on IDO (SKOV-3 cells), the “IDO cellular assay (SKOV3) pIC50” value is given as “+++ (+++ = pIC50 ≥5.50)”.

In the case of `CC(C)c1noc(C(C)NC(=O)c2cc3cc(Cl)ccc3[nH]2)n1` (stereo not drawn) [Compound 126], at TDO (A172 cells), the “TDO cellular assay (A172) pIC50” value is “− (− = pIC50 <4.50)”. The “IDO cellular assay (SKOV3) pIC50” value at IDO (SKOV-3 cells) is on record as “+++ (+++ = pIC50 ≥5.50)”.

On to `C[C@@H](NS(=O)(=O)c1cc2cc(F)ccc2[nH]1)c1ccccc1` [Compound 127], for which the “TDO cellular assay (A172) pIC50” value on TDO (A172 cells) is “− (− = pIC50 <4.50)”. The “IDO cellular assay (SKOV3) pIC50” value at IDO (SKOV-3 cells) is “+ (+ = pIC50 4.50-<5.00)”.

Take `O=C(NC1(c2ccccc2)CC1)c1cc2cc(Cl)ccc2[nH]1` [Compound 128]: the “TDO cellular assay (A172) pIC50” value at TDO (A172 cells) was “+ (+ = pIC50 4.50-<5.00)”. The “IDO cellular assay (SKOV3) pIC50” value on IDO (SKOV-3 cells) is reported as “+++ (+++ = pIC50 ≥5.50)”.

Consider `O=C(NCc1nc(-c2ccccc2)no1)c1cc2cc(Cl)ccc2[nH]1` [Compound 129], for which, on TDO (A172 cells), the “TDO cellular assay (A172) pIC50” value was “− (− = pIC50 <4.50)”. In addition, the “IDO cellular assay (SKOV3) pIC50” value on IDO (SKOV-3 cells) is listed as “++ (++ = pIC50 5.00-<5.50)”.

Consider `COCCc1noc(C(C)NC(=O)c2cc3cc(Cl)ccc3[nH]2)n1` (stereo not drawn) [Compound 130], for which, on TDO (A172 cells), the “TDO cellular assay (A172) pIC50” value was “− (− = pIC50 <4.50)”. For the same compound, at IDO (SKOV-3 cells), the “IDO cellular assay (SKOV3) pIC50” value was “++ (++ = pIC50 5.00-<5.50)”.

As to `COc1ccc(-c2noc(C(C)NC(=O)c3cc4cc(Cl)ccc4[nH]3)n2)cc1OC` (stereo not drawn) [Compound 131], on TDO (A172 cells), the “TDO cellular assay (A172) pIC50” value is recorded as “− (− = pIC50 <4.50)”. Also, the “IDO cellular assay (SKOV3) pIC50” value at IDO (SKOV-3 cells) is reported as “+++ (+++ = pIC50 ≥5.50)”.

Regarding `O=C(NC1(c2ccccc2)CCC1)c1cc2cc(Cl)ccc2[nH]1` [Compound 132], the “TDO cellular assay (A172) pIC50” value on TDO (A172 cells) was “+ (+ = pIC50 4.50-<5.00)”. In addition, the “IDO cellular assay (SKOV3) pIC50” value at IDO (SKOV-3 cells) is reported as “+++ (+++ = pIC50 ≥5.50)”.

With `CC(NC(=O)c1cc2cc(Cl)ccc2[nH]1)c1cnn(C)c1` (stereo not drawn) [Compound 133], at TDO (A172 cells), the “TDO cellular assay (A172) pIC50” value was “− (− = pIC50 <4.50)”. The “IDO cellular assay (SKOV3) pIC50” value on IDO (SKOV-3 cells) is reported as “+++ (+++ = pIC50 ≥5.50)”.

Regarding `CC(NC(=O)c1cc2cc(Cl)ccc2[nH]1)c1noc(-c2ccccc2)n1` (stereo not drawn) [Compound 134], the “TDO cellular assay (A172) pIC50” value at TDO (A172 cells) is given as “− (− = pIC50 <4.50)”. On IDO (SKOV-3 cells), the “IDO cellular assay (SKOV3) pIC50” value was “+++ (+++ = pIC50 ≥5.50)”.

As to `CC(NC(=O)c1cc2cc(Cl)ccc2[nH]1)c1cnn(C(C)C)c1` (stereo not drawn) [Compound 135], at TDO (A172 cells), the “TDO cellular assay (A172) pIC50” value is recorded as “− (− = pIC50 <4.50)”. Moreover, the “IDO cellular assay (SKOV3) pIC50” value at IDO (SKOV-3 cells) is “+++ (+++ = pIC50 ≥5.50)”.

In the case of `N#Cc1ccc2[nH]c(C(=O)NC3(c4ccccc4)CC3)cc2c1` [Compound 136], the “TDO cellular assay (A172) pIC50” value at TDO (A172 cells) is “− (− = pIC50 <4.50)”. In addition, the “IDO cellular assay (SKOV3) pIC50” value at IDO (SKOV-3 cells) is listed as “+++ (+++ = pIC50 ≥5.50)”.

For `N#Cc1ccc2[nH]c(C(=O)NC3(c4ccc(F)cc4)CC3)cc2c1` [Compound 137], at TDO (A172 cells), the “TDO cellular assay (A172) pIC50” value is on record as “− (− = pIC50 <4.50)”. For the same compound, the “IDO cellular assay (SKOV3) pIC50” value on IDO (SKOV-3 cells) is “+++ (+++ = pIC50 ≥5.50)”.

On to `O=C(NC1(c2ccc(F)cc2)CC1)c1cc2cc(Cl)ccc2[nH]1` [Compound 138], for which, on TDO (A172 cells), the “TDO cellular assay (A172) pIC50” value is on record as “− (− = pIC50 <4.50)”. The “IDO cellular assay (SKOV3) pIC50” value at IDO (SKOV-3 cells) is listed as “+++ (+++ = pIC50 ≥5.50)”.

Values taken from patent US10167257B2, “Indole derivatives for use in medicine” (IOmet Pharma Ltd., priority 2014, dated 2019).
